Values joined by “and” are separate entries in the source; they are usually repeats but may differ in a detail not shown here. Identical values can stand only once.
What was measured:
[1] = Plasma trough levels (Cmin) of Imatinib and CGP74588, IRIS study (LC/MS/MS); format: in vivo
[2] = in patients; cited from earlier work
[3] = system: CML patients; assay: Cytogenetic (CCR) and molecular (MMR) response to Imatinib mesylate therapy and ROC curve analysis, Bordeaux study; format: in vivo, human; conditions: of 68 CML patients, after at least one year's treatment, 400 or 600 mg once daily
Experimental: The cytogenetic response to Imatinib mesylate therapy was assessed using a conventional cytogenetic analysis of bone marrow metaphases. Cytogenetic responders were defined as having CCR, i.e. 0 percent of Philadelphia-chromosome-positive metaphases among at least 25 cells in metaphase in the bone marrow aspirate (Colombat M, Fort M P, Chollet C, et al. Haematologica 2006; 91:162-8.). Real-time quantitative reverse-transcriptase polymerase chain reaction assay was used to assess BCR-ABL transcript levels and quantify the molecular response (Colombat M, Fort M P, Chollet C, et al. see above). Briefly, EDTA-anticoagulated peripheral blood was collected to perform RNA extraction followed by real-time quantitative reverse-transcriptase polymerase chain reaction. […] Quantification of BCR-ABL transcripts was performed according to recommendations recently proposed for harmoniza-tion of results (Hughes T P, Deininger M, Hochhaus A, et al. Blood 2006; 108:28-37.). […] A standardized baseline was calculated by measuring the ratio of BCR-ABL/ABL in 40 chronic-phase CML patients from blood collected before any treatment. […]
Any relationship between BCR-ABL transcript levels and the range time from date of Imatinib mesylate treatment initiation to date of molecular analysis was evaluated.
Results were expressed as adjusted odds ratio; 95 percent confidence interval; P value of Wald test.

[4] = system: CML-CP patients; assay: CCR and MMR rates by steady-state Imatinib trough level quartile, IRIS study; format: in vivo, human
Experimental: Rates of CCR (defined as 0% Ph+ metaphase cells out of at least 20 examined) in the study population and major molecular response (MMR, defined as ≧3 log reduction in BCR-ABL/BCR ratio from a standardized baseline) in subjects who achieved CCR before were reported previously (O'Brien S G, Guilhot F, Larson R A, et al., see above).
CCR were evaluated up to 5 years.

[5] = system: newly diagnosed patients with CML in chronic phase (CML-CP); conditions: cited from earlier work
[6] = Trough plasma Imatinib concentrations at steady-state, Bordeaux study (HPLC-ESI-MS/MS)
[7] = Day 29, Quartiles 2 and 3, N = 178
[8] = five year follow-up, first-line imatinib
[9] = 400 mg daily, 50 patients, steady-state
[10] = 600 mg daily, 18 patients, steady-state
[11] = patients without MMR (34 patients)

## Cc1ccc(NC(=O)c2ccc(CN3CCNCC3)cc2)cc1Nc1nccc(-c2cccnc2)n1 [CGP74588, N-{5-[4-(piperazino-methyl)-benzoylamido]-2-methylphenyl}-4-(3-pyridyl)-2-pyrimidine-amine]
[1]; Day 29, 400 mg daily, overall N = 351
  Steady-state trough level, mean (±SD): 241.9±105.5 ng/mL and 242 (±105.5) ng/mL
[1]; Day 29, Quartile 1, N = 87
  CGP74588/Imatinib trough concentration ratio, mean (±SD): 0.32 (±0.106)
  Steady-state trough level, mean (±SD): 153 (±48.5) ng/mL
[1]; Day 29, Quartile 4, N = 86
  CGP74588/Imatinib trough concentration ratio, mean (±SD): 0.21 (±0.052)
  Steady-state trough level, mean (±SD): 343 (±126.1) ng/mL
[1]; [7]
  CGP74588/Imatinib trough concentration ratio, mean (±SD): 0.27 (±0.068)
  Steady-state trough level, mean (±SD): 236 (±65.8) ng/mL
[1]; first 400 mg dose, Day 2, mean±SD
  24-hour trough concentration after the first dose: 82.7 ± 47.4 ng/mL
[1]; in vivo
  Contribution of the metabolite to Imatinib exposure: < 20%
  Spearman correlation coefficient between parent drug and metabolite levels: 0.76
[1]; trough levels on days 2 and 29 in the same subject
  Accumulation ratio to steady state: 3.38±1.54
[2]
  Metabolite level as share of the parent drug plasma level: ~20%

## Cc1ccc(NC(=O)c2ccc(CN3CCN(C)CC3)cc2)cc1Nc1nccc(-c2cccnc2)n1 [Imatinib, 4-(4-methylpiperazin-1-ylmethyl)-N-[4-methyl-3-(4-(pyridin-3-yl)pyrimidin-2-ylamino)phenyl]-benzamide]
[3]
  Number of patients who achieved a CCR: 56
[1]; Day 29, Quartile 1, N = 87
  Steady-state trough level, mean (±SD): 490 (±119.7) ng/mL
[1]; Day 29, Quartile 4, N = 86
  Steady-state trough level, mean (±SD): 1661 (±602.0) ng/mL
[1]; [7]
  Steady-state trough level, mean (±SD): 889 (±148.2) ng/mL
[1]; Day 29, patients who achieved CCR
  Imatinib trough exposure (Cmin), mean: 1009 ± 544 ng/mL and 1009 ng/mL
[1]; Day 29, patients who did not achieve CCR
  Imatinib trough exposure (Cmin), mean: 812 ± 409 ng/mL and 812 ng/mL
[1]; age from 20 years to 70 years, linear relationship assumed
  Increase in trough level: 295 ng/mL
[1]; females, steady state
  Plasma trough level: 1078 ± 514.5 ng/mL
[1]; human, plasma, first 400 mg dose, Day 2, mean±SD, read-out: 24-hour trough concentration after the first dose
  concentration at 24 h: 518 ± 370 ng/mL
[1]; males, steady state
  Plasma trough level: 921 ± 530.8 ng/mL
[1]; steady state
  Difference in plasma trough level, females vs males: 17.2%
[1]; weight increase from 40 kg to 120 kg, linear relationship assumed
  Estimated decrease in trough level: approximately 280 ng/ml
[4]; 1 year, Quartile 1
  MMR (%) in pts with CCR: 43%
[4]; 1 year, Quartile 1 (n = 87)
  CCR rate: 59%
[4]; 1 year, Quartile 4
  MMR (%) in pts with CCR: 55%
[4]; 1 year, Quartile 4 (n = 86)
  CCR rate: 73%
[4]; 1 year, Quartiles 2 and 3
  MMR (%) in pts with CCR: 56%
[4]; 1 year, Quartiles 2 and 3 (n = 178)
  CCR rate: 71%
[4]; 2 years, Quartile 1
  CCR rate: 73%
  MMR (%) in pts with CCR: 63%
[4]; 2 years, Quartile 4
  CCR rate: 84%
  MMR (%) in pts with CCR: 86%
[4]; 2 years, Quartiles 2 and 3
  CCR rate: 80%
  MMR (%) in pts with CCR: 78%
[4]; 4 years, Quartile 1
  CCR rate: 81%
  MMR (%) in pts with CCR: 65%
[4]; 4 years, Quartile 4
  CCR rate: 89%
  MMR (%) in pts with CCR: 90%
[4]; 4 years, Quartiles 2 and 3
  CCR rate: 87%
  MMR (%) in pts with CCR: 83%
[4]; Quartile 1
  Time to CCR: 8.3 Month
  Time to MMR in pts with CCR: 16.7 months
[4]; Quartile 4
  Time to CCR: 5.6 Month
[4]; Quartiles 2 and 3
  Time to CCR: 5.7 Month
[4]; at 1 year, Imatinib levels <647 ng/mL
  Estimated MMR rate, all patients: 25%
[4]; by 4 years, Q1
  Estimated MMR rate, all patients: 53%
[4]; by 4 years, Q4
  Estimated MMR rate, all patients: 80%
[4]; by 4 years, inter-quartile range (IQ)
  Estimated MMR rate, all patients: 72%
[4]; within 1 year, patients with higher Imatinib levels
  Estimated MMR rate, all patients: 40%
[5]; 400 mg daily, newly diagnosed CML-CP
  Efficacy compared with IFN+Ara-C: superior efficacy to IFN+Ara-C
[5]; [8]
  Estimated cumulative rate of complete cytogenetic response (CCR): 87%
  Overall survival: 89%
[6]; 400 mg daily Imatinib mesylate, 50 patients, steady-state
  Trough plasma Imatinib concentration, mean value: 1058 ng per millilitre
[6]; [9]
  Trough plasma Imatinib concentration, Q 25 (first quartile): 722 ng per millilitre
  Trough plasma Imatinib concentration, Q 75 (third quartile): 1285 ng per millilitre
  Trough plasma Imatinib concentration, maximum: 2947 ng per millilitre
  Trough plasma Imatinib concentration, median: 997 ng per millilitre
  Trough plasma Imatinib concentration, minimum: 181 ng per millilitre
[6]; [10]
  Trough plasma Imatinib concentration, Q 25 (first quartile): 902 ng per millilitre
  Trough plasma Imatinib concentration, Q 75 (third quartile): 1629 ng per millilitre
  Trough plasma Imatinib concentration, maximum: 2922 ng per millilitre
  Trough plasma Imatinib concentration, median: 1315 ng per millilitre
  Trough plasma Imatinib concentration, minimum: 603 ng per millilitre
[6]; patients with CCR (56 patients)
  Mean (±SD) trough plasma Imatinib concentration: 1123.3±616.6 ng per millilitre
[6]; patients with MMR (34 patients)
  Median trough plasma Imatinib concentration: 1350.2 ng per millilitre
[6]; patients without CCR (12 patients)
  Mean (±SD) trough plasma Imatinib concentration: 694.2±556.0 ng per millilitre
[6]; [11]
  Mean (±SD) trough plasma Imatinib concentration: 869.3±427.5 ng per millilitre
  Median trough plasma Imatinib concentration: 885.5 ng per millilitre

Source: patent US20170007605A1, “Method of Optimizing the Treatment of Philadelphia-positive Leukemia with Abl Tyrosine Kinase Inhibitors” (Novartis AG, priority 2006, published 2017)
